Test results from paper PMC9049331, “X-ray crystal structure of the Escherichia coli RadD DNA repair protein bound to ADP reveals a novel zinc ribbon domain” (PLoS ONE, 2022).

Target: T1, RadD (Escherichia coli, UniProt P33919)
T1 construct: open reading frame of E. coli radD from plasmid pEAW724, no tag mentioned, expressed in E. coli STL2669 (DE3)
T1 sequence (P33919 1-586): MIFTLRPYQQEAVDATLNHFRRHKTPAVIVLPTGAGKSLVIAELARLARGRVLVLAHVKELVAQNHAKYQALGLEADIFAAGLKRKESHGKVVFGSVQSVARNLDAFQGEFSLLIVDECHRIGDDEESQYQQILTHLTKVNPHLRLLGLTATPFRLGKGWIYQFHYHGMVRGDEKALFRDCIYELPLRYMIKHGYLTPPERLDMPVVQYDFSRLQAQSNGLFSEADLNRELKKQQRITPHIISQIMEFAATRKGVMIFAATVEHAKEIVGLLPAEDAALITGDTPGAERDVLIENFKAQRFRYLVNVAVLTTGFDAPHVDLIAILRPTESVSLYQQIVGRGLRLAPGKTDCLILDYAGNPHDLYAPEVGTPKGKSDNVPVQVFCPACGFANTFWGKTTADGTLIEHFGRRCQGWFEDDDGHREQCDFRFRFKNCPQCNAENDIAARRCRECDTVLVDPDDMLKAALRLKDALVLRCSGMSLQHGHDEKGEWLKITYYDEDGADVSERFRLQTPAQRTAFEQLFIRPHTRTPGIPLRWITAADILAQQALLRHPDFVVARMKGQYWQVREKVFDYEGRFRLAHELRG
Assay: X-ray crystal structure, […] A
Assay type: binding
Details: crystallised with 1 mM ATPgammaS, ADP presumed from slow hydrolysis; Mg2+; pH 7.7; 4 C; ATPase site

X-ray crystal structure, 2.03 A: ADP was modelled in the RadD active site
SMILES: Nc1ncnc2c1ncn2[C@@H]1O[C@H](COP(=O)(O)OP(=O)(O)O)[C@@H](O)[C@H]1O [ADP]
